Data taken from paper PMC10221837, “Alanine Substitution to Determine the Effect of LR5 and YR6 Rice Peptide Structure on Antioxidant and Anti-Inflammatory Activity” (Nutrients, 2023).
Ends that are not written are not given here.

System: RAW264.7 cells
Test: MTT proliferation and cytotoxicity of peptides (stimulating index)
Format: cell-based, mouse
Conditions: RAW264.7, MTT, 24 h, across 12.5, 25, 50 and 100 μg/mL peptide
Method: The MTT colorimetry method was used to determine the effects of original rice peptides and replacement peptides on RAW264.7 cell proliferation, and the toxic effects of these peptides on the cells. RAW264.7 cells were cultured in DMEM high glucose medium containing 10% (v/v) fetal bovine serum (FBS) and 1% (v/v) of penicillin–streptomycin solution (10,000 U/mL of penicillin and 10,000 U/mL of streptomycin). The cells were cultured at 37 °C in a humidified incubator (Boxun Co., Ltd., Shanghai, China) with 5% (v/v) CO2, with sub-culturing every three days.
Briefly, pre-cultured, logarithmic phase cells were inoculated into 96-well plates (with six double wells for each group), at a cell density of 6.0 × 10^4 cells/mL. Then, 200 μL of cell suspension was added into the wells and incubated for 6 h to make the cells adhere to the well wall. After that, different concentrations of samples (12.5, 25, 50, and 100 μg/mL) were added to four of the six corresponding wells for each group. Sterile water and immunoglobulin G (IgG) were used as the blank and positive control groups, respectively. The samples were subsequently incubated in a humidified incubator with 5% (v/v) CO2 at 37 °C for 24 h, and then 20 μL of MTT solution (5 mg/mL) was added to each well and incubated for a further 4 h. Next, the culture medium supernatant was gently removed from the wells, and 150 μL of dimethyl sulfoxide (DMSO) solution was added into the wells, which were shaken for 10 min at room temperature to ensure that the […] was fully dissolved. Then, the solution was immediately detected at 490 nm. The cytotoxicity was evaluated based on the following stimulating index (SI) value Formula (3):(3) SI=OD1/OD0 where OD1 is the absorbance value at 490 nm of the sample group or the IgG group, and OD0 is the absorbance value at 490 nm of the blank group.

| Substance | SI value (stimulating index, OD sample/OD blank) |
| --- | --- |
| AGLYPR [AGR6] | greater than 1.0 |
| AHKFR [AR5] | greater than 1.0 |
| LHKAR [LAR5] | greater than 1.0 |
| LHKFR [LR5] | greater than 1.0 |
| YGAYPR [YAR6] | greater than 1.0 |
| YGLAPR [YLR6] | greater than 1.0 |
| YGLYAR [YGR6] | greater than 1.0 |
| YGLYPR [YR6] | greater than 1.0 |
